Results published in US20260035360A1, “INHIBITORS OF MYC AND USES THEREOF” (Northwestern University, priority 2022, published 2026).

Legend:
Format in all cases: cell-based
MYC = biological target: T1, MYC (Homo sapiens, UniProt P01106); test: MYC protein level in PC3 cells by western blot, 24 hr; settings: PC-3, 24 h, PC3, 24 h, Actin control, read-out: Relative MYC protein at 10 μM (%, PC3 24 h)
T1 construct: endogenous in cells; host or cells: PC3 cells
Description: (§1) Table 2. Biological data of selected compounds. For IC50 determination. PC3 and PC12 cells were treated with increasing concentrations of the indicated compounds for 72 hrs and cell viability assessed using CellTitreGlo Assay (Promega). For MYC and ATF4 protein level determination. PC3 cells were treated with the indicated compounds for 24 hr sand cell lysates processed for western blot with MYC and ATF4 antibodies using Actin as a control. Quantification analyses were performed by Biorad ChemiDoc Imager and Bio-Rad Image Lab software.

PC3 cells = test: PC3 cell viability, CellTitreGlo Assay, 72 hrs; settings: Homo sapiens, PC-3
Description: as §1

PC12 cells = test: PC12 cell viability, CellTitreGlo Assay, 72 hrs; settings: Rattus norvegicus, PC-12
Description: as §1

ATF4 = ATF4 protein level in PC3 cells by western blot, 24 hr; settings: Homo sapiens, PC-3, PC3, 24 h, Actin control, read-out: Relative ATF4 protein at 10 μM (fold change, PC3 24 h)
Description: as §1

T1 sequence (P01106 whole entry): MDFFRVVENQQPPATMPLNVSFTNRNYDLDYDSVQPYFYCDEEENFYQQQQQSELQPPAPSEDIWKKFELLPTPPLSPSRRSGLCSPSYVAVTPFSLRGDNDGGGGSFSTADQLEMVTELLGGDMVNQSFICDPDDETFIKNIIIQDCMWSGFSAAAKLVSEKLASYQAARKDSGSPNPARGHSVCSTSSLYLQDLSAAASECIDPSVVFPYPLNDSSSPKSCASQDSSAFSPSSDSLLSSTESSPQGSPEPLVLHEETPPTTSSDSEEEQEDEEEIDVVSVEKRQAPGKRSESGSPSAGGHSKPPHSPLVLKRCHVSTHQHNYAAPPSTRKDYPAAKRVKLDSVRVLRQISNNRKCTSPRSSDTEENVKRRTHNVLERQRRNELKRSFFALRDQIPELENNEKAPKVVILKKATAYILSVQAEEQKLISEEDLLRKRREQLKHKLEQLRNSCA

| SMILES | remaining activity at 10 µM (MYC) [%] | IC50 (PC3 cells) [µM] | IC50 (PC12 cells) [µM] | fold induction at 10 µM (ATF4) |
| --- | --- | --- | --- | --- |
| CNc1c(Cl)cc(-c2cc(C(F)(F)F)nn2C)c(O)c1-c1ccc(Cl)c(C(F)(F)F)c1 [NUCC-0226529] | 41.3 | 3.1 | 19.4 | 2.4 |
| Cn1nc(C(F)(F)F)cc1-c1cc(Cl)c(N)c(-c2ccc(Cl)c(C(F)(F)F)c2)c1O [NUCC-0226528] | 19.8 | 4.5 | 30.5 | 2 |
| Cn1nc(C(F)(F)F)cc1-c1ccc(Oc2ccc(Cl)cc2)c(-c2ccc(Cl)c(C(F)(F)F)c2)c1O [NUCC-0227247] | 46.7 | 1.14 | 7.12 | 18.3 |
| Cn1nc(C(F)(F)F)cc1-c1cc2c(c(-c3ccc(Cl)c(C(F)(F)F)c3)c1O)OC(c1ccc(Cl)cc1)CC2 (centres unmarked) [NUCC-0227173] | 62.9 | 4.74 | 14.1 | 9 |
| Cn1nc(C(F)(F)F)cc1-c1ccnc(-c2ccc(Cl)c(C(F)(F)F)c2)c1O [NUCC-0226595] | 69.8 | 0.74 | 4.03 | 6.3 |
| Cc1ncsc1-c1ccc(CNC(=O)[C@@H]2C[C@H](O)CN2C(=O)[C@H](NC(=O)COCCNC(=O)CCOCCCN(C(=O)c2ccc(Cl)c(C(F)(F)F)c2)c2ccc(-c3cc(C(F)(F)F)nn3C)c(O)c2)C(C)(C)C)cc1 [NUCC-0226291] | 54.6 | 4 | 14.6 | 1.8 |
| Cn1nc(C(F)(F)F)c(Cl)c1-c1cc(F)c(COc2ccc(Cl)cc2)c(-c2ccc(Cl)c(C(F)(F)F)c2)c1O [NUCC-0227063] | 37.2 | 0.985 | 5.02 | 12.4 |
| Cn1nc(C(F)(F)F)cc1-c1ccc(OCCCCCOCCOCCOc2cccc3c2C(=O)N(C2CCC(=O)NC2=O)C3=O)c(-c2ccc(Cl)c(C(F)(F)F)c2)c1O (centres unmarked) [NUCC-0226224] | 84.2 | 10.1 |  | 8.1 |
| Cn1nc(C(F)(F)F)cc1-c1ccc(N(CCCOCCC(=O)NCCOCCOCCNc2cccc3c2C(=O)N(C2CCC(=O)NC2=O)C3=O)C(=O)c2ccc(Cl)c(C(F)(F)F)c2)cc1O (centres unmarked) [NUCC-0226231] | 53.6 | 8.5 |  | 14.3 |
| Cn1nc(C(F)(F)F)cc1-c1ccc(OCc2ccc(Cl)cc2)c(-c2ccc(Cl)c(C#N)c2)c1O [NUCC-0226499] | 37.3 | 2.4 | 13.5 | 17.1 |
| CC(C)Cc1ccc(COc2ccc(-c3cc(C(F)(F)F)nn3C)c(O)c2-c2ccc(Cl)c(C(F)(F)F)c2)cc1 [NUCC-0226305] | 52.4 | 8.4 |  | 2.9 |
| Cn1nc(C(F)(F)F)c(Cl)c1-c1ccc(COc2ccc(Cl)cc2Cl)c(-c2ccc(Cl)c(C(F)(F)F)c2)c1O [NUCC-0227064] | 42 | 0.399 | 8.27 | 12.7 |
| Cn1nc(C(F)(F)F)cc1-c1ccc(-c2ccc(Cl)cc2)c(OCc2ccc(Cl)c(C(F)(F)F)c2)c1O [NUCC-0226652] | 72.3 | 4.42 | 16.6 | 5.2 |
| C[C@@H](Oc1ccc(-c2cc(C(F)(F)F)nn2C)c(O)c1-c1ccc(Cl)c(C(F)(F)F)c1)c1ccccc1 [NUCC-0226433] | 35 | 4 |  | 10.6 |
| C[C@@H](C(=O)N[C@H](C(=O)N1C[C@@H](NC(=O)COCCOCCNC(=O)CCOCCCN(C(=O)c2ccc(Cl)c(C(F)(F)F)c2)c2ccc(-c3cc(C(F)(F)F)nn3C)c(O)c2)C[C@H]1C(=O)N[C@@H]1CCCc2ccccc21)C1CCCCC1)N(C)C(=O)OC(C)(C)C [NUCC-0226299] | 42.1 | 3.8 | 11.3 | 5.4 |
| CN(C)c1c(Cl)cc(-c2cc(C(F)(F)F)nn2C)c(O)c1-c1ccc(Cl)c(C(F)(F)F)c1 [NUCC-0226530] | 35.5 | 12 | 9.4 | 3 |
| Cn1cncc1-c1ccc(OCc2ccc(Cl)cc2)c(-c2ccc(Cl)c(C(F)(F)F)c2)c1O [NUCC-0226660] | 94.4 | > 50 | 9.22 | 2.5 |
| Cn1nc(C#N)cc1-c1ccc(OCc2ccc(Cl)cc2)c(-c2ccc(Cl)c(C(F)(F)F)c2)c1O [NUCC-0226914] | 48.5 | 1.01 | 3.5 | 14.1 |
| COc1ccc(C2=N[C@@H](c3ccc(Cl)cc3)[C@@H](c3ccc(Cl)cc3)N2C(=O)N2CCN(CCCCCOc3ccc(-c4cc(C(F)(F)F)nn4C)c(O)c3-c3ccc(Cl)c(C(F)(F)F)c3)C(=O)C2)c(OC(C)C)c1 [NUCC-0226223] | 91.5 | 18.6 |  | 5.5 |
| Cn1nc(C(F)(F)F)cc1-c1ccc(OCc2ccc(Cl)cc2)c(-c2cccc(F)c2)c1O [NUCC-0226498] | 67.8 | 40.9 |  | 4.8 |
| Cn1nc(C(F)(F)F)cc1-c1ccc(N(CCCOCCC(=O)NCCOCCOCCNc2ccc3c(c2)C(=O)N(C2CCC(=O)NC2=O)C3=O)C(=O)c2ccc(Cl)c(C(F)(F)F)c2)cc1O (centres unmarked) [NUCC-0226293] | 18.4 | 4.7 |  | 3.6 |
| CC(C)Cc1ccc([C@@H](C)Oc2ccc(-c3cc(C(F)(F)F)nn3C)c(O)c2-c2ccc(Cl)c(C(F)(F)F)c2)cc1 [NUCC-0226437] | 50.7 | 5.4 |  | 9 |
| Cc1ncsc1-c1ccc(CNC(=O)[C@@H]2C[C@@H](O)CN2C(=O)[C@@H](NC(=O)CCCCCCCCNC(=O)CCOCCCN(C(=O)c2ccc(Cl)c(C(F)(F)F)c2)c2ccc(-c3cc(C(F)(F)F)nn3C)c(O)c2)C(C)(C)C)cc1 [NUCC-0226226] | 81.9 | 5.1 |  | 10.6 |
| CC(=O)N[C@@H](C(=O)N1C[C@@H](O)C[C@@H]1C(=O)NCc1ccc(-c2scnc2C)cc1OCCOCCNC(=O)CCOCCCN(C(=O)c1ccc(Cl)c(C(F)(F)F)c1)c1ccc(-c2cc(C(F)(F)F)nn2C)c(O)c1)C(C)(C)C [NUCC-0226290] | 27.4 | 5.1 |  | 2.9 |

Further compounds by falling IC50 (PC3 cells), results first:

| remaining activity at 10 µM (MYC) [%] | IC50 (PC3 cells) [µM] | SMILES | IC50 (PC12 cells) [µM] | fold induction at 10 µM (ATF4) |
| --- | --- | --- | --- | --- |
| 93 | 24.8 | Cn1nc(C(F)(F)F)cc1-c1ccc(OCc2ccc(Cl)cc2)c(-c2ccc(Cl)cc2F)c1O [NUCC-0226497] |  | 5.9 |
| 86.9 | 14.2 | Cn1nc(N)cc1-c1ccc(OCc2ccc(Cl)cc2)c(-c2ccc(Cl)c(C(F)(F)F)c2)c1O [NUCC-0226915] | 10.5 | 0.95 |
| 122 | 14.1 | Cn1nc(C(F)(F)F)cc1-c1ccc(NC(c2ccccc2)c2ccccc2)c(-c2ccc(Cl)c(C(F)(F)F)c2)c1O [NUCC-0226502] |  | 1.4 |
| 84.2 | 8.53 | Cn1nc(C(N)=O)cc1-c1cc(Cl)c(COc2ccc(Cl)cc2)c(-c2ccc(Cl)c(C(F)(F)F)c2)c1O [NUCC-0227066] |  | 3.9 |
| 120 | 7.4 | Cn1nc(C(F)(F)F)cc1-c1ccc(N(CCCOCCC(=O)NCCOCCOCCOCCNc2cccc3c2C(=O)N(C2CCC(=O)NC2=O)C3=O)C(=O)c2ccc(Cl)c(C(F)(F)F)c2)cc1O (centres unmarked) [NUCC-0226289] |  | 7 |
| 54.2 | 6 | Cn1nc(C(F)(F)F)cc1-c1ccc(N(CCCOCCC(=O)NCCOCCNc2cccc3c2C(=O)N(C2CCC(=O)NC2=O)C3=O)C(=O)c2ccc(Cl)c(C(F)(F)F)c2)cc1O (centres unmarked) [NUCC-0226288] |  | 6.6 |
| 38.1 | 6 | Cc1ncsc1-c1ccc(CNC(=O)[C@@H]2C[C@@H](O)CC2C(=O)[C@@H](NC(=O)COCCNC(=O)CCOCCCN(C(=O)c2ccc(Cl)c(C(F)(F)F)c2)c2ccc(-c3cc(C(F)(F)F)nn3C)c(O)c2)C(C)(C)C)cc1 (some centres unmarked) [NUCC-0226228] |  | 23.1 |
| 41.8 | 3.28 | Cn1nc(C(F)(F)F)cc1-c1cc2c(c(-c3ccc(Cl)c(C(F)(F)F)c3)c1O)CN(Cc1ccc(Cl)cc1)CC2 [NUCC-0227169] | 8.01 | 14.6 |
| 28.4 | 2.1 | Cn1nc(C(F)(F)F)cc1-c1ccc(N(CC23CC4CC(CC(C4)C2)C3)C(=O)c2ccc(Cl)c(C(F)(F)F)c2)cc1O [NUCC-0226225] | 14.5 | 15.2 |
| 34.5 | 1.61 | Cn1nc(C(F)(F)F)c(Cl)c1-c1cc(Cl)c(COc2ccc(Cl)cc2Cl)c(-c2ccc(Cl)c(C(F)(F)F)c2)c1O [NUCC-0227038] | 15.3 | 15.1 |
| 72.4 | 1.6 | COc1c(Cl)cc(-c2cc(C(F)(F)F)nn2C)c(O)c1-c1ccc(Cl)c(C(F)(F)F)c1 [NUCC-0226500] | 8.6 | 7.7 |
| 48.5 | 1.1 | Cn1nc(C(F)(F)F)cc1-c1ccc(OCc2ccc(OCCOCCNc3cccc4c3C(=O)N(C3CCC(=O)NC3=O)C4=O)cc2)c(-c2ccc(Cl)c(C(F)(F)F)c2)c1O (centres unmarked) [NUCC-0226301] | 3.8 | 3.2 |
